The record followed here is patent publication US11718610B2, “Compounds containing benzosultam” (MEDSHINE DISCOVERY INC., priority 2020, dated 2023).

Experiment [1] has as its system Calu-6 cells. Put plainly: Calu-6 (Kras Q61K) antiproliferative activity experiment (CellTiterGlo). Format: cell-based, human. To be noted: cultured three days. The method, then:
Experimental Embodiment 1: Calu-6 (Kras^Q61K) Antiproliferative Activity Experiment
(1) cell culture medium: 88% RPMI-1640, 10% fetal bovine serum, 1% L-glutamine and 1% penicillin-streptomycin;
(2) culture medium, trypsin and DPBS were preheated in a 37° C. water bath;
(3) the original culture medium was removed in the cell culture flask and washed once with 6 mL of PBS;
(4) 3.5 mL of trypsin was added to the cell culture flask, and the cell culture flask was shaken gently, and the trypsin was removed after full contact with the cell, and then the culture flask was placed into a 37° C. incubator containing 5% CO2 for about 1 minute;
(5) the cells were resuspended with 10 mL of cell culture medium, and about 0.6 mL of cell suspension (ViCell XR) was taken out for counting;
(6) the cell suspension was diluted with culture medium to a cell density required for plating of 2.5×10^4 cells per mL;
(7) 100 μL of PBS was added to each well around the cell plate, and 40 μL of cell suspension was added to the other wells, and placed in a 37° C. incubator containing 5% CO2 for overnight culture.
(8) The required cell amount and culture medium were taken based on the new T75 culture flask for continued culture.
(1) the compound to be tested was prepared into […] solution with DMSO;
(2) 9 μL of the compound was taken and added to Echo shallow well plate (Labcyte, #LP-0200), and the shallow well plate was centrifuged at 1000 rpm for 10 seconds;
(3) DPBS at the periphery of the cell plate was sucked out;
(4) the compound was gradient diluted and administrated with Echo, and 10 concentration gradients of each compound were diluted, and 100 nL of the diluent was added to the 384 cell plate separately, and then the cell plate was put back to the incubator and cultured for three days;
(5) then 100 μL of DPBS was added to the periphery of the cell plate.
(1) CTG was added and the plate was read: 20 μL of CellTiterGlo was added to each well of the cell plate, and the cell plate was shaken in the dark for 10 min. and the plate was read on Envision.
In general terms: In ATP-based viability assays light output follows the ATP content of the culture.

Experiment [2] concerns A375 cells. Put plainly: A375 (BRAF V600E) antiproliferative activity experiment (CellTiter-glo). Format: cell-based. The note with it: Homo sapiens, A-375, 120 h, cultured 5 days. How it is done:
Experimental Embodiment 3: A375 (BRAF^V600E) Antiproliferative Activity Experiment
Cell line A375 (purchased from Procell). DMEM culture medium, penicillin/streptomycin antibiotics were purchased from Vicente, and fetal bovine serum was purchased from Biosera. CellTiter-glo (cell viability chemiluminescence detection reagent) reagent was purchased from Promega.
A375 cells were seeded in a white 96 well plate with […] of cell suspension per well containing 2000 of A375 cells. The cell plate was placed in a carbon dioxide incubator and cultured overnight. The compound to be tested was diluted 3-fold to the 9th concentration with a pipette, that is, diluted from 6 mmol to 0.91 μmol, and a double-duplicate experiment was set-up, 78 μmol of culture medium was added to the middle plate, then 2 μmol of gradient dilution compound per well was transferred to the middle plate according to the corresponding position, and 20 μmol per well was mixed and transferred to the cell plate. The concentration of the compound transferred to the cell plate ranged from 30 μmol to 4.57 nmol. The cell plate was placed in a carbon dioxide incubator and cultured for 5 days. Another cell plate was prepared, and the signal value was read as the maximum value (max value in the following equation) on the day of administration to participate in data analysis, 25 μmol of cell viability chemiluminescence detection reagent was added to each well of the cell plate and incubated at room temperature for 10 minutes to stabilize the luminescence signal. A multi-marker analyzer reading was used. After the incubation of the cell plate added with the compound was finished, 25 μmol of cell viability chemiluminescence detection reagent was added to each well of the cell plate and incubated at room temperature for 10 minutes to stabilize the luminescence signal. A multi-marker analyzer reading was used.
(§1) The equation (Sample−Min)/(Max−Min)*100% was used to convert the original data into inhibition rate, and the IC50 value could be obtained by curve fitting with four parameters (obtained by “log (inhibitor) vs. response—variable slope” mode in GraphPad Prism).

Experiment [3] has as its system Colo205 cells. The experiment is described as follows: Colo205 (BRAF V600E) antiproliferative activity experiment (CellTiter-glo). The note with it: Homo sapiens, COLO 205, 72 h, cultured 3 days. Format: cell-based. The method, then: Experimental Embodiment 4: Colo205 (BRAF^V600E) Antiproliferative Activity Experiment
Cell line COLO205 (purchased from Procell), RPMI1640 culture medium, penicillin/streptomycin antibiotics were purchased from Vicente, and fetal bovine serum was purchased from Biosera. CellTiter-glo (cell viability chemiluminescence detection reagent) reagent was purchased from Promega.
COLO205 cells were seeded in a white 96-well plate with […] of cell suspension per well containing 3000 of COLO205 cells. The cell plate was placed in a carbon dioxide incubator and cultured overnight. The compound to be tested was diluted 3-fold to the 9th concentration with a pipette, that is, diluted from […], and a double-duplicate experiment was set-up. 78 μmol of culture medium was added to the middle plate, then 2 μmol of gradient dilution compound per well was transferred to the middle plate according to the corresponding position, and 20 μmol of per well was mixed and transferred to the cell plate. The concentration of the compound transferred to the cell plate ranged from 1 μmol to 0.15 nmol. The cell plate was placed in a carbon dioxide incubator and cultured for 3 days. Another cell plate was prepared, and the signal value was read as the maximum value (max value in the following equation) on the day of administration to participate in data analysis. 25 μmol of cell viability chemiluminescence detection reagent was added to each well of the cell plate and incubated at room temperature for 10 minutes to stabilize the luminescence signal. A multi-marker analyzer reading was used. After the incubation of the cell plate added with the compound was finished, 25 μmol of cell viability chemiluminescence detection reagent was added to each well of the cell plate and incubated at room temperature for 10 minutes to stabilize the luminescence signal. A multi-marker analyzer reading was used.
as §1

Take `COc1cc(F)cc([C@@H](CO)NC(=O)[C@@H](C)N2Cc3ccc(-c4nc(NC5CCOCC5)ncc4Br)cc3S2(=O)=O)c1` [Compound 3]: the concentration for half-maximal inhibition (IC50) in experiment [1] (Homo sapiens, Calu-6, 72 h) stood at 300 nM; in experiment [2] it was 13 nM; in experiment [3] it was 16 nM.

`COc1cc(F)cc([C@@H](CO)NC(=O)[C@@H](C)N2Cc3ccc(-c4nc(N[C@H]5CCOC[C@H]5F)ncc4Cl)cc3S2(=O)=O)c1` [Compound 11]: the IC50 in experiment [2] and in experiment [3] was 16 nM throughout.

Consider `[2H]C1([2H])CC(Nc2ncc(Cl)c(-c3ccc4c(c3)S(=O)(=O)N([C@H](C)C(=O)N[C@H](CO)c3cc(F)cc(OC)c3)C4)n2)CC([2H])([2H])O1` [Compound 9], for which the IC50 in experiment [1] (Homo sapiens, Calu-6, 72 h) turned out to be 222 nM; in experiment [2], 14 nM; in experiment [3], 14 nM.

For `COc1cc(F)cc([C@@H](CO)NC(=O)[C@@H](C)N2Cc3ccc(-c4nc(NC5CCOCC5)ncc4Cl)cc3S2(=O)=O)c1` [Compound 1], the IC50 amounted to 88.5 nM in experiment [1] and 15 nM in experiment [2].

By IC50 is commonly meant the concentration that inhibits the measured activity by half.
